Data on ten compounds can be found in patent publication US20170022171A1, “2,5-DISUBSTITUTED CYCLOPENTANECARBOXYLIC ACIDS AND THEIR USE” (Bayer Pharma Aktiengesellschaft, priority 2014, published 2017).

Format in all cases: biochemical
In one test the target is T1, MMP-13 (Homo sapiens, UniProt P45452).
T1 construct: purchased R&D Systems 511-MP
Nature of the test: In vitro MMP-13 inhibition test. From the text: (§1) The MMP-mediated amidolytic cleavage of a suitable peptide substrate leads to an increase in fluorescent light here too. The signal intensity of the fluorescent light is directly proportional to the enzyme activity. The active concentration of a test compound at which half the enzyme is inhibited (50% signal intensity of the fluorescent light) is reported as the IC50 value.
(§2) Recombinant MMP-13 (from R&D Systems, 511-MP) is chemically activated in accordance with the manufacturer's instructions using APMA. 1 μl of the test compound to be analysed (as a solution in DMSO, suitable concentrations, for example, 1 nM to 30 μM) is pipetted into 24 μl of activated enzyme (final concentration, for example, 0.1 nM) in reaction buffer (50 mM Tris/HCl pH 7.5, 10 mM CaCl2, 150 mM NaCl, 0.05% Brij®-35) in a white 384-hole microtiter plate (MTP). The enzymatic reaction is started by adding the intramolecularly quenched Mca-Pro-Leu-Gly-Leu-Dpa(Dnp)-Ala-Arg-NH2 substrate (final concentration, for example, 10 μM; R&D Systems, ES-001), so as to result in a total test volume of 50 The course of the MMP-13 reaction is measured by measuring the fluorescence intensity (excitation 320 nm, emission 410 nm) over a suitable period of time (for example over 120 min at a temperature of 32° C.).

Another test has as its target T2, MMP-16 (Homo sapiens, UniProt P51512).
T2 construct: purchased R&D Systems 1785-MP
The test is described as follows: In vitro MMP-16 inhibition test.
From the text: as §1
Recombinant MMP-16 (from R&D Systems, 1785-MP) is enzymatically activated in accordance with the manufacturer's instructions using recombinant furin (from R&D Systems, 1503-SE). 1 μl of the test compound to be analysed (as a solution in DMSO, suitable concentrations e.g. 1 nM to 30 μM) is pipetted into 24 μl of activated enzyme (final concentration e.g. 1 nM) in reaction buffer (50 mM Tris/HCl pH 7.5, 10 mM CaCl2, 150 mM NaCl, 0.05% Brij®-35) in a white 384-hole microtiter plate (MTP). The enzymatic reaction is started by adding the intramolecularly quenched Mca-Lys-Pro-Leu-Gly-Leu-Dpa(Dnp)-Ala-Arg-NH2 substrate (final concentration, for example, 5 μM; R&D Systems, ES-010), so as to result in a total test volume of 50 The course of the MMP-16 reaction is measured by measuring the fluorescence intensity (excitation 320 nm, emission 410 nm) over a suitable period of time (for example over 120 min at a temperature of 32° C.).

The next test deals with T3, MMP-7 (Homo sapiens, UniProt P09237).
T3 construct: purchased R&D Systems 907-MP
T3 sequence (P09237 95-267): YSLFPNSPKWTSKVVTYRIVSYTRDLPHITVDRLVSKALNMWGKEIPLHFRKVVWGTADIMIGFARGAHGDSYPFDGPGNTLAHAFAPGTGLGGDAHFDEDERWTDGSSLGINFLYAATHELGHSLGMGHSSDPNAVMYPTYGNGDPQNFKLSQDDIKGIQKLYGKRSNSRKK
Nature of the test: In vitro MMP-7 inhibition test.
From the text: as §1
as §2, with “MMP-7” for “MMP-13”, “907-MP)” for “511-MP)”, “0.5” for “0.1”

The target of the next test is T4, MMP-2 (Homo sapiens, UniProt P08253).
T4 construct: purchased R&D Systems 902-MP
T4 sequence (P08253 110-660): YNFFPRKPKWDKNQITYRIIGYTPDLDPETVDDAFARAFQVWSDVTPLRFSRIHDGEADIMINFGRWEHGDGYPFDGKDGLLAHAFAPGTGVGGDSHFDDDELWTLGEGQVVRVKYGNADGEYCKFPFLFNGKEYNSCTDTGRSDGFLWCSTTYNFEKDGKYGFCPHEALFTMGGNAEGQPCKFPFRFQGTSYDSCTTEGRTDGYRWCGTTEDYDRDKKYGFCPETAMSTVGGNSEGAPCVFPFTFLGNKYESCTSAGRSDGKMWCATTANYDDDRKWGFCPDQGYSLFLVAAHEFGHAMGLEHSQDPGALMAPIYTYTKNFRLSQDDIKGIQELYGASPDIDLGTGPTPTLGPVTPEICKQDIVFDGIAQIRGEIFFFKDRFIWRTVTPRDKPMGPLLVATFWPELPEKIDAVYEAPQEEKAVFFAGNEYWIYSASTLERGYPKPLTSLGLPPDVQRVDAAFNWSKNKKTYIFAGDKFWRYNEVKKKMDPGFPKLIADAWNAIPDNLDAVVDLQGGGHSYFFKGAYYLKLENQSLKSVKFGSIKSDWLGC
The test is described as follows: In vitro MMP-2 inhibition test.
From the text: as §1
Recombinant MMP-2 (from R&D Systems, 902-MP) is chemically activated in accordance with the manufacturer's instructions using APMA. 1 μl of the test compound to be analysed (as a solution in DMSO, suitable concentrations, for example, 1 nM to 30 μM) is pipetted into 24 μl of activated enzyme (final concentration, for example, 2 nM) in reaction buffer (50 mM Tris/HCl pH 7.5, 10 mM CaCl2, 150 mM NaCl, 0.05% Brij®-35) in a white 384-hole microtiter plate (MTP). The enzymatic reaction is started by adding the intramolecularly quenched Mca-Pro-Leu-Gly-Leu-Dpa(Dnp)-Ala-Arg-NH2 substrate (final concentration, for example, 10 μM; R&D Systems, ES-001), so as to result in a total test volume of 50 μl. The course of the MMP-2 reaction is measured by measuring the fluorescence intensity (excitation 320 nm, emission 410 nm) over a suitable period of time (for example over 120 min at a temperature of 32° C.).

One may read the IC50 as the concentration at which inhibition is half-maximal.

T2 sequence (P51512 120-564 limits assumed): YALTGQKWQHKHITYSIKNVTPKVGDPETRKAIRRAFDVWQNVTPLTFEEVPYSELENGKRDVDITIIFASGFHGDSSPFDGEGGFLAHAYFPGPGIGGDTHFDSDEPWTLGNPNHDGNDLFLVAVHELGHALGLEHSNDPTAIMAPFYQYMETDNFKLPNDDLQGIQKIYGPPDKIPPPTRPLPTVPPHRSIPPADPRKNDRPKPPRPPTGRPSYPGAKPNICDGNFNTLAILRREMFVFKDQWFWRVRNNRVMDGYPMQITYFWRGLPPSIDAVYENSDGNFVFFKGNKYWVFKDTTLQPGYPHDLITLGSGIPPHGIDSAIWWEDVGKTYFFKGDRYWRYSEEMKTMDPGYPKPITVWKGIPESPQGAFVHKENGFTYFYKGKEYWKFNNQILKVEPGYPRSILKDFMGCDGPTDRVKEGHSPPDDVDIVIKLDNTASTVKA

Consider `O=C(O)[C@@H]1[C@@H](Cn2nnc3ccc(C(F)(F)F)cc3c2=O)CC[C@H]1C(=O)c1ccc(OCC2CCCC2)cc1` (single isomer, unassigned) [Example 44, (+)-(1RS,2RS,5SR)-2-[4-(Cyclopentylmethoxy)benzoyl]-5-{[4-oxo-6-(trifluoromethyl)-1,2,3-benzotriazin-3(4H)-yl]methyl}cyclopentanecarboxylic acid], for which the IC50 on MMP-13 was 58 nM; at MMP-16, 100 nM; on MMP-7, 140 nM; on MMP-2 it was 270 nM.
In the same order, the values of `O=C(O)[C@@H]1[C@@H](Cn2nnc3ccc(C(F)(F)F)cc3c2=O)CC[C@H]1C(=O)c1ccc(OCc2ccc(Cl)cc2)cc1` (single isomer, unassigned) [Example 25, (+)-(1RS,2RS,5SR)-2-{4-[(4-Chlorobenzyl)oxy]benzoyl}-5-{[4-oxo-6-(trifluoromethyl)-1,2,3-benzotriazin-3(4H)-yl]methyl}cyclopentanecarboxylic acid] are 45 nM, 290 nM, 120 nM and 79 nM.
In the same order, the values of `O=C(O)[C@@H]1[C@@H](Cn2nnc3ccc(C(F)(F)F)cc3c2=O)CC[C@H]1C(=O)c1ccc(OCCC2CCCCC2)cc1` (single isomer, unassigned) [Example 52, (+)-(1RS,2RS,5SR)-2-[4-(2-Cyclohexylethoxy)benzoyl]-5-{[4-oxo-6-(trifluoromethyl)-1,2,3-benzotriazin-3(4H)-yl]methyl}cyclopentanecarboxylic acid] are 1600 nM, 4600 nM, 340 nM and 1600 nM.
Taken in the same sequence, the figures for `CCCCOc1ccc(C(=O)[C@@H]2CC[C@H](Cn3nnc4ccc(C(F)(F)F)cc4c3=O)[C@H]2C(=O)O)cc1` (single isomer, unassigned) [Example 67, (+)-(1RS,2RS,5SR)-2-(4-Butoxybenzoyl)-5-{[4-oxo-6-(trifluoromethyl)-1,2,3-benzotriazin-3(4H)-yl]methyl}cyclopentanecarboxylic acid] were 270 nM, 180 nM, 120 nM and 270 nM.
Take `O=C(O)[C@@H]1[C@@H](Cn2nnc3ccc(C(F)(F)F)cc3c2=O)CC[C@H]1C(=O)c1ccc(OCCC2CCCC2)cc1` (single isomer, unassigned) [Example 55, (+)-(1RS,2RS,5SR)-2-[4-(2-Cyclopentylethoxy)benzoyl]-5-{[4-oxo-6-(trifluoromethyl)-1,2,3-benzotriazin-3(4H)-yl]methyl}cyclopentanecarboxylic acid]: the IC50 turned out to be 1700 nM on MMP-13, 5100 nM against MMP-16, 260 nM on MMP-7 and 1300 nM on MMP-2.
In the same order, the values of `Cc1cccc(COc2ccc(C(=O)[C@H]3CC[C@@H](Cn4nnc5ccc(C(F)(F)F)cc5c4=O)[C@@H]3C(=O)O)cc2)c1` (racemic) [Example 15, (+/−)-(1RS,2RS,5SR)-2-{4-[(3-Methylbenzyl)oxy]benzoyl}-5-{[4-oxo-6-(trifluoromethyl)-1,2,3-benzotriazin-3(4H)-yl]methyl}cyclopentanecarboxylic acid] are 640 nM, 520 nM, 120 nM and 480 nM.
Taken in the same sequence, the figures for `O=C(O)[C@H]1[C@H](Cn2nnc3ccc(C(F)(F)F)cc3c2=O)CC[C@@H]1C(=O)c1ccc(OCCCC2CCCCC2)cc1` (racemic) [Example 56, (+/−)-(1RS,2RS,5SR)-2-{4-(3-Cyclohexylpropoxy)benzoyl}-5-{[4-oxo-6-(trifluoromethyl)-1,2,3-benzotriazin-3(4H)-yl]methyl}cyclopentanecarboxylic acid] were 2400 nM, over 40000 nM, 1400 nM and 2800 nM.
On to `Cc1ccc2nnn(C[C@@H]3CC[C@H](C(=O)c4ccc(OCc5cccc(C(F)(F)F)c5)cc4)[C@H]3C(=O)O)c(=O)c2c1` (racemic) [Example 100, (+/−)-(1RS,2SR,5RS)-2-[(6-Methyl-4-oxo-1,2,3-benzotriazin-3(4H)-yl)methyl]-5-(4-{[3-(trifluoromethyl)benzyl]oxy}benzoyl)cyclopentanecarboxylic acid], for which the IC50 on MMP-13 was found to be 360 nM; at MMP-16, 970 nM; against MMP-7, 1000 nM; against MMP-2 it was 540 nM.
Take `CCCCCOc1ccc(C(=O)[C@H]2CC[C@@H](Cn3nnc4ccc(C)cc4c3=O)[C@@H]2C(=O)O)cc1` (racemic) [Example 123, (+/−)-(1RS,2SR,5RS)-2-[(6-Methyl-4-oxo-1,2,3-benzotriazin-3(4H)-yl)methyl]-5-[4-(pentyloxy)benzoyl]cyclopentanecarboxylic acid]: the IC50 on MMP-13 was 230 nM; on MMP-16 it was 11000 nM; against MMP-7, 390 nM; on MMP-2, 170 nM.
In the same order, the values of `O=C(O)[C@@H]1[C@@H](Cn2nnc3ccc(C(F)(F)F)cc3c2=O)CC[C@H]1C(=O)c1ccc(OCc2cccc(N3CCOC3=O)c2)cc1` (single isomer, unassigned) [Example 35, (+)-(1RS,2RS,5SR)-2-(4-{[3-(2-Oxo-1,3-oxazolidin-3-yl)benzyl]oxy}benzoyl)-5-{[4-oxo-6-(trifluoromethyl)-1,2,3-benzotriazin-3(4H)-yl]methyl}cyclopentanecarboxylic acid] are 53 nM, 300 nM, 31 nM and 450 nM.
